What was measured:
[1] = Solubility of Q203 in aqueous solutions (background statement); assay type: physicochemical
cytochrome bc1 = cytochrome bc1 (Mycobacterium tuberculosis, UniProt P9WP37); details: by inhibiting cytochrome bc1 activity; Pethe et al., Nature Medicine 2013; cited from earlier work
cytochrome bc1, sequence (P9WP37 whole entry, looked up): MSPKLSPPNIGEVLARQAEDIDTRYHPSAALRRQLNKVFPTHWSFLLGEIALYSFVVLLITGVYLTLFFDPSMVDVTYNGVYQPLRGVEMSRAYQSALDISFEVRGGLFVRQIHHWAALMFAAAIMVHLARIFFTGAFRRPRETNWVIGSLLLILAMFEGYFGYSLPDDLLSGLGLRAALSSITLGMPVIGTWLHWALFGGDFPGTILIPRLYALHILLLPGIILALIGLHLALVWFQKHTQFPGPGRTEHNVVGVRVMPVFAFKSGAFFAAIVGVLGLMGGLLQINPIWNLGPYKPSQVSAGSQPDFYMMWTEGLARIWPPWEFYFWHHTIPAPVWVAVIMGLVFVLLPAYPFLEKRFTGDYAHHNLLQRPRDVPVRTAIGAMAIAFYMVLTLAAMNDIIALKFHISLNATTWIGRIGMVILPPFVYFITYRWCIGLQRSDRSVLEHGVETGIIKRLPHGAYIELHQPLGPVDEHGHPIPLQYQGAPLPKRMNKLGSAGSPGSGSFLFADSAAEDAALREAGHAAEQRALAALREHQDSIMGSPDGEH

CCc1nc2ccc(Cl)cn2c1C(=O)NCc1ccc(N2CCC(c3ccc(OC(F)(F)F)cc3)CC2)cc1 [Example Q203, 6-chloro-2-ethyl-N-(4-(4-(4-(trifluoromethoxy)phenyl)piperidine-1-yl)benzyl)imidazo[1,2-a]pyridine-3-carboxamide]
solubility in aqueous solutions [1]: rather low solubility | activity against tuberculosis (cytochrome bc1): active against tuberculosis
